Assay results: US5958890A, “Tricyclic compounds useful for inhibition of G-protein function and for treatment of proliferative diseases” (Schering Corporation, priority 1997, dated 1999)

Tests used:
COS Cell = COS Cell IC50 (Cell-Based Assay, procedure of WO 95/10516)
Experimental: FPT IC50 (inhibition of farnesyl protein transferase, in vitro enzyme assay) and COS Cell IC50 (Cell-Based Assay) were determined following the assay procedures described in WO 95/10516, published Apr. 20, 1995. GGPT IC50 (inhibition of geranylgeranyl protein transferase, in vitro enzyme assay), Cell Mat Assay, and anti-tumor activity (in vivo anti-tumor studies) could be determined by the assay procedures described in WO 95/10516. The disclosure of WO 95/10516 is incorporated herein by reference thereto.

[1] = molecular target: farnesyl protein transferase (Homo sapiens, UniProt P49354+P49356); assay: FPT inhibition, in vitro enzyme assay (procedure of WO 95/10516); assay type: biochemical

SMILES: NC(=O)N1CC[C@@H](CC(=O)N2CCC(C3c4ncc(Br)cc4CCc4cc(Cl)cc(Cl)c43)CC2)C1 (single isomer, unassigned) [Example 2]
- IC50 (COS Cell): 0.03 nM

SMILES: NC(=O)N1CC[C@H](CC(=O)N2CCC(C3c4ncc(Br)cc4CCc4cc(Cl)cc(Cl)c43)CC2)C1 (single isomer, unassigned) [Example 1]
- IC50 [1]: 0.0386 nM
